Values joined by “and” are separate entries in the source; they are usually repeats but may differ in a detail not shown here. Equal entries are not always repeated.
Tests used:
[1] = cited from earlier work
[2] = cited from earlier work; remark: listed apart in the source
[3] = cited from earlier work; remark: listed apart in the source
[4] = Quantitative urine testing of patients prescribed Latuda for compliance over 5 days (Examples 2-7)
Experimental: The urine of 20 patients who were prescribed 20 mg of Latuda® (lurasidone) was tested for compliance over 5 days (Table 3).
Samples that were deemed invalid based on pH and/or specific gravity (n=7) were not included in calculations. Any drug/metabolite concentration that was less than the LOD/LOQ (5 ng/mL) as noted in Table 3 was also excluded from the calculations.
The urine of 12 patients who were prescribed 40 mg of Latuda® (lurasidone) was tested for compliance over 5 days (Table 5).
Samples that were deemed invalid based on pH and/or specific gravity (n=3) were not included in calculations. Any drug/metabolite concentration that was less than the LOD/LOQ (5 ng/mL) as noted in Table 5 was also excluded from the calculations.
The urine of 2 patients who was prescribed 60 mg of Latuda® (lurasidone) was tested for compliance over 5 days (Table 7).
The urine of 15 patients who were prescribed 80 mg of Latuda® (lurasidone) was tested for compliance over 5 days (Table 9).
Any drug/metabolite concentration that was less than the LOD/LOQ (5 ng/mL) as noted in Table 5 was also excluded from the calculations.
The urine of 1 patient who was prescribed 100 mg of Latuda® (lurasidone) was tested for compliance over 5 days (Table 11).
The urine of 6 patients who were prescribed 120 mg of Latuda® (lurasidone) was tested for compliance over 5 days (Table 13).
Samples that were deemed invalid based on pH and/or specific gravity (n=2) were not included in calculations.

[5] = Qualitative identification of lurasidone and metabolites in urine by Q-ToF MS/MS (Example 1); settings: chronic lurasidone doses; for Lurasidone Metabolite Distribution in Human Urine (qualitative identification): individual subjects
Experimental: Urine samples of normally metabolizing human subjects who were known to be taking chronic doses of lurasidone were tested for the presence of lurasidone and eleven metabolites (excluding isomeric metabolites). Each patient sample was analyzed twice to ensure accuracy. Due to the high probability for false identification of isobars, MS/MS data was collected and selectively looked at to add confidence to the identification.

CYP3A4 = target: T1, CYP3A4 (Homo sapiens, UniProt P08684); settings: liver; cited from earlier work
T1 construct: host or cells: liver (in vivo metabolism, general statement)
T1 sequence (P08684 whole entry): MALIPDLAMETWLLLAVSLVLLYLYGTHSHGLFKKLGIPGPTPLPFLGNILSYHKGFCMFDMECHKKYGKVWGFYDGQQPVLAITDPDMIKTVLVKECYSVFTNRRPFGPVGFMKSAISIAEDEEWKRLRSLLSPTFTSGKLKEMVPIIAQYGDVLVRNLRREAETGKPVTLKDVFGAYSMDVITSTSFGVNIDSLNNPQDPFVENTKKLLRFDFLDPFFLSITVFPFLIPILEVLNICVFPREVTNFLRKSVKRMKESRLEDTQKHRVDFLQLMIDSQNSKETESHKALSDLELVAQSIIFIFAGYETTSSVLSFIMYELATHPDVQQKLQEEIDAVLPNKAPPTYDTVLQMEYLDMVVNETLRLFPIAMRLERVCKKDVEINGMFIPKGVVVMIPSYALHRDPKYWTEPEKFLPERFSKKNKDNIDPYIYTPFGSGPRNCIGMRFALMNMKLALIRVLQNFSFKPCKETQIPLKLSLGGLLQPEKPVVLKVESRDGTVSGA

[6] = 20 mg/day, n 53 valid samples, values below LOD/LOQ excluded
[7] = 40 mg/day, n 33 valid samples, values below LOD/LOQ excluded
[8] = 80 mg/day, n 45, values below LOD/LOQ excluded

## Lurasidone
[1]; excretion studies in humans
  excreted in the feces: 80%
  recovered in the urine: 9%
[1]; plasma, post oral dosing
  share of total radioactivity in plasma: 12%
[2]; days of dosing
  time to steady state serum concentrations: 7 days
[2]; in vivo
  mean elimination half-life: 18 h
[3]
  log P: 5.9
  pKa: 7.6
[4]; 20 mg/day Latuda, Day 1, individual subjects, ** = below LOD/LOQ 5 ng/mL (negative)
  urine concentration: 9.7 ng/mL and 12.7 ng/mL and 9.0 ng/mL and 33.1 ng/mL and 24.6 ng/mL and 6.9 ng/mL and 6.0 ng/mL and 4.4* ** ng/mL and 9.1 ng/mL (2×) and 10.1 ng/mL and 5.7 ng/mL and 7.8 ng/mL and 12.9 ng/mL and 25.8 ng/mL and 13.8 ng/mL and 3.2** ng/mL and 83.1 ng/mL and 33.4 ng/mL and 12.0 ng/mL
[4]; 20 mg/day Latuda, Day 4, individual subjects, ** = below LOD/LOQ 5 ng/mL (negative)
  urine concentration: 149.0 ng/mL and 14.3 ng/mL and 18.9 ng/mL and 4.8** ng/mL and 14.0 ng/mL and 5.7 ng/mL and 4.7* ** ng/mL and 7.0 ng/mL (2×) and 2.9* ** ng/mL and 31.3 ng/mL and 13.0 ng/mL and 7.3 ng/mL and 24.3 ng/mL and 4.3** ng/mL and 12.5 ng/mL and 17.5 ng/mL and 5.8 ng/mL and 29.1 ng/mL and 8.0 ng/mL
[4]; 20 mg/day Latuda, Day 5, individual subjects, ** = below LOD/LOQ 5 ng/mL (negative)
  urine concentration: 9.6 ng/mL and 8.8 ng/mL and 13.2 ng/mL and 24.4 ng/mL and 26.2 ng/mL and 20.3 ng/mL and 6.5 ng/mL and 6.6 ng/mL and 6.0 ng/mL and 18.6 ng/mL and 12.1 ng/mL and 13.6 ng/mL and 5.4 ng/mL and 10.2 ng/mL and 11.0 ng/mL and 12.4 ng/mL and 5.2 ng/mL and 4.7** ng/mL and 23.2 ng/mL and 10.4 ng/mL
[4]; 20 mg/day, n 53 valid samples
  urine concentration, Maximum Value: 149.00 ng/mL
  urine concentration, Median Value: 12.45 ng/mL
[4]; [6]
  urine concentration, Average: 18.38 ng/mL
  urine concentration, Minimum Value: 5.70 ng/mL
[4]; 40 mg/day Latuda, Day 1, individual subjects, ** = below LOD/LOQ 5 ng/mL (negative)
  urine concentration: 30.5 ng/mL and 31.9 ng/mL and 63.9 ng/mL and 25.8 ng/mL and 4.4** ng/mL and 30.6 ng/mL and 9.8 ng/mL and 112.1 ng/mL and 14.0 ng/mL and 11.8 ng/mL and 129.1 ng/mL and 77.1 ng/mL
[4]; 40 mg/day Latuda, Day 4, individual subjects, ** = below LOD/LOQ 5 ng/mL (negative)
  urine concentration: 21.7 ng/mL and 25.6 ng/mL and 70.7 ng/mL and 69.3 ng/mL and 26.4 ng/mL and 1.0** ng/mL and 41.3 ng/mL and 14.5 ng/mL and 54.0 ng/mL and 32.8 ng/mL and 12.8 ng/mL and 38.0 ng/mL
[4]; 40 mg/day Latuda, Day 5, individual subjects, ** = below LOD/LOQ 5 ng/mL (negative)
  urine concentration: 37.9 ng/mL (2×) and 60.0 ng/mL and 33.4 ng/mL and 40.1 ng/mL and 1.3** ng/mL and 35.8 ng/mL and 7.2 ng/mL and 192.1 ng/mL and 11.3 ng/mL and 7.8 ng/mL and 56.4 ng/mL
[4]; 40 mg/day, n 33 valid samples
  urine concentration, Maximum Value: 192.10 ng/mL
  urine concentration, Median Value: 33.10 ng/mL
[4]; [7]
  urine concentration, Average: 44.23 ng/mL
  urine concentration, Minimum Value: 7.20 ng/mL
[4]; 60 mg/day Latuda, Day 1, individual subjects
  urine concentration: 16.3 ng/mL
[4]; 60 mg/day Latuda, Day 4, individual subjects
  urine concentration: 25.3 ng/mL and 36.8 ng/mL
[4]; 60 mg/day Latuda, Day 5, individual subjects
  urine concentration: 50.5 ng/mL
[4]; 60 mg/day, n 6
  urine concentration, Average: 30.30 ng/mL
  urine concentration, Maximum Value: 50.50 ng/mL
  urine concentration, Median Value: 31.05 ng/mL
  urine concentration, Minimum Value: 15.60 ng/mL
[4]; 80 mg/day, n 45
  urine concentration, Maximum Value: 556.60 ng/mL
  urine concentration, Median Value: 70.00 ng/mL
[4]; [8]
  urine concentration, Average: 120.26 ng/mL
  urine concentration, Minimum Value: 10.10 ng/mL
[4]; 100 mg/day, n 3
  urine concentration, Average: 73.97 ng/mL
  urine concentration, Maximum Value: 94.90 ng/mL
  urine concentration, Median Value: 64.50 ng/mL
  urine concentration, Minimum Value: 62.50 ng/mL
[4]; 120 mg/day, n 16 valid samples
  urine concentration, Average: 95.42 ng/mL
  urine concentration, Maximum Value: 260.10 ng/mL
  urine concentration, Median Value: 73.60 ng/mL
  urine concentration, Minimum Value: 12.40 ng/mL
[4]; patient prescribed 80 mg/day Latuda, subject II, day 1
  concentration in urine: 147.1 ng/mL
[4]; patient prescribed 80 mg/day Latuda, subject II, day 4
  concentration in urine: 144.8 ng/mL
[4]; patient prescribed 80 mg/day Latuda, subject II, day 5
  concentration in urine: 112.7 ng/mL
[4]; patient prescribed 80 mg/day Latuda, subject eleven, day 1
  concentration in urine: 556.6 ng/mL
[4]; patient prescribed 80 mg/day Latuda, subject eleven, day 4
  concentration in urine: 503.8 ng/mL
[4]; patient prescribed 80 mg/day Latuda, subject eleven, day 5
  concentration in urine: 264.0 ng/mL
[4]; patient prescribed 80 mg/day Latuda, subject fifteen, day 1
  concentration in urine: 138.5 ng/mL
[4]; patient prescribed 80 mg/day Latuda, subject fifteen, day 4
  concentration in urine: 83.8 ng/mL
[4]; patient prescribed 80 mg/day Latuda, subject fifteen, day 5
  concentration in urine: 67.6 ng/mL
[4]; patient prescribed 80 mg/day Latuda, subject five, day 1
  concentration in urine: 57.3 ng/mL
[4]; patient prescribed 80 mg/day Latuda, subject five, day 4
  concentration in urine: 69.6 ng/mL
[4]; patient prescribed 80 mg/day Latuda, subject five, day 5
  concentration in urine: 100.6 ng/mL
[4]; patient prescribed 80 mg/day Latuda, subject four, day 1
  concentration in urine: 175.2 ng/mL
[4]; patient prescribed 80 mg/day Latuda, subject four, day 4
  concentration in urine: 96.4 ng/mL
[4]; patient prescribed 80 mg/day Latuda, subject four, day 5
  concentration in urine: 116.3 ng/mL
[4]; patient prescribed 80 mg/day Latuda, subject nine, day 1
  concentration in urine: 52.6 ng/mL
[4]; patient prescribed 80 mg/day Latuda, subject nine, day 4
  concentration in urine: 43.7 ng/mL
[4]; patient prescribed 80 mg/day Latuda, subject nine, day 5
  concentration in urine: 38.9 ng/mL
[4]; patient prescribed 80 mg/day Latuda, subject nineteen, day 1
  concentration in urine: 210.7 ng/mL
[4]; patient prescribed 80 mg/day Latuda, subject nineteen, day 4
  concentration in urine: 70.4 ng/mL
[4]; patient prescribed 80 mg/day Latuda, subject nineteen, day 5
  concentration in urine: 16.1 ng/mL
[4]; patient prescribed 80 mg/day Latuda, subject one, day 1, values marked ** below LOD/LOQ of 5 ng/mL = negative result, * ion ratio criteria not met
  concentration in urine: 4.8** ng/mL
[4]; patient prescribed 80 mg/day Latuda, subject one, day 4
  concentration in urine: 52.0 ng/mL
[4]; patient prescribed 80 mg/day Latuda, subject one, day 5
  concentration in urine: 22.9 ng/mL
[4]; patient prescribed 80 mg/day Latuda, subject seventeen, day 1
  concentration in urine: 152.8 ng/mL
[4]; patient prescribed 80 mg/day Latuda, subject seventeen, day 4
  concentration in urine: 83.3 ng/mL
[4]; patient prescribed 80 mg/day Latuda, subject seventeen, day 5
  concentration in urine: 72.4 ng/mL
[4]; patient prescribed 80 mg/day Latuda, subject sixteen, day 1
  concentration in urine: 10.1 ng/mL
[4]; patient prescribed 80 mg/day Latuda, subject sixteen, day 4
  concentration in urine: 14.5 ng/mL
[4]; patient prescribed 80 mg/day Latuda, subject sixteen, day 5
  concentration in urine: 41.0 ng/mL
[4]; patient prescribed 80 mg/day Latuda, subject ten, day 1
  concentration in urine: 40.5 ng/mL
[4]; patient prescribed 80 mg/day Latuda, subject ten, day 4
  concentration in urine: 162.5 ng/mL
[4]; patient prescribed 80 mg/day Latuda, subject ten, day 5
  concentration in urine: 48.3 ng/mL
[4]; patient prescribed 80 mg/day Latuda, subject thirteen, day 1
  concentration in urine: 145.2 ng/mL
[4]; patient prescribed 80 mg/day Latuda, subject thirteen, day 4
  concentration in urine: 298.3 ng/mL
[4]; patient prescribed 80 mg/day Latuda, subject thirteen, day 5
  concentration in urine: 539.5 ng/mL
[4]; patient prescribed 80 mg/day Latuda, subject three, day 1
  concentration in urine: 59.5 ng/mL
[4]; patient prescribed 80 mg/day Latuda, subject three, day 4
  concentration in urine: 35.9 ng/mL
[4]; patient prescribed 80 mg/day Latuda, subject three, day 5
  concentration in urine: 69.5 ng/mL
[4]; patient prescribed 80 mg/day Latuda, subject twelve, day 1, values marked ** below LOD/LOQ of 5 ng/mL = negative result
  concentration in urine: 0.0** ng/mL
[4]; patient prescribed 80 mg/day Latuda, subject twelve, day 4
  concentration in urine: 32.9 ng/mL
[4]; patient prescribed 80 mg/day Latuda, subject twelve, day 5
  concentration in urine: 43.5 ng/mL
[4]; patient prescribed 80 mg/day Latuda, subject two, day 1
  concentration in urine: 23.0 ng/mL
[4]; patient prescribed 80 mg/day Latuda, subject two, day 4, values marked ** below LOD/LOQ of 5 ng/mL = negative result
  concentration in urine: 0.1** ng/mL
[4]; patient prescribed 80 mg/day Latuda, subject two, day 5
  concentration in urine: 36.7 ng/mL
[4]; patient prescribed 120 mg/day Latuda, subject eight, day 1
  concentration in urine: 148.7 ng/mL
[4]; patient prescribed 120 mg/day Latuda, subject eight, day 4
  concentration in urine: 260.1 ng/mL
[4]; patient prescribed 120 mg/day Latuda, subject eight, day 5, specimen validity (creatinine, specific gravity) not acceptable
  concentration in urine: 57.2 ng/mL
[4]; patient prescribed 120 mg/day Latuda, subject eighteen, day 1
  concentration in urine: 23.4 ng/mL
[4]; patient prescribed 120 mg/day Latuda, subject eighteen, day 4
  concentration in urine: 27.5 ng/mL
[4]; patient prescribed 120 mg/day Latuda, subject eighteen, day 5
  concentration in urine: 12.4 ng/mL
[4]; patient prescribed 120 mg/day Latuda, subject fourteen, day 1
  concentration in urine: 102.7 ng/mL
[4]; patient prescribed 120 mg/day Latuda, subject fourteen, day 4
  concentration in urine: 87.3 ng/mL
[4]; patient prescribed 120 mg/day Latuda, subject fourteen, day 5
  concentration in urine: 59.1 ng/mL
[4]; patient prescribed 120 mg/day Latuda, subject seven, day 1
  concentration in urine: 83.9 ng/mL
[4]; patient prescribed 120 mg/day Latuda, subject seven, day 4
  concentration in urine: 46.4 ng/mL
[4]; patient prescribed 120 mg/day Latuda, subject seven, day 5
  concentration in urine: 63.3 ng/mL
[4]; patient prescribed 120 mg/day Latuda, subject six, day 1, specimen validity (creatinine) not acceptable
  concentration in urine: 21.7 ng/mL
[4]; patient prescribed 120 mg/day Latuda, subject six, day 4, specimen validity (specific gravity) not acceptable
  concentration in urine: 23.7 ng/mL
[4]; patient prescribed 120 mg/day Latuda, subject six, day 5
  concentration in urine: 61.6 ng/mL
[4]; patient prescribed 120 mg/day Latuda, subject twenty, day 1
  concentration in urine: 126.2 ng/mL
[4]; patient prescribed 120 mg/day Latuda, subject twenty, day 4
  concentration in urine: 150.7 ng/mL
[4]; patient prescribed 120 mg/day Latuda, subject twenty, day 5
  concentration in urine: 251.7 ng/mL
[5]
  detectability in human urine (Example 1): detected in the majority of the samples
[5]; Run 1
  Lurasidone Metabolite Distribution in Human Urine (qualitative identification): ✓* (5×) and ✓^ (4×)
[5]; Run 2
  Lurasidone Metabolite Distribution in Human Urine (qualitative identification): ✓^ (4×) and ✓* (5×)
CYP3A4
  metabolizing enzyme: metabolized in the liver primarily by CYP3A4

Source: patent US9606132B2, “Methods of monitoring adherence to lurasidone therapy” (Ameritox, Ltd., priority 2013, dated 2017)
